Test system: SMARTCAR-MTH1-wt-HiBiT (Jurkat.7 cells)
Assay: HiBit Lytic Assay (HiBit DC50, MTH1 degraders of Table 2)
Assay type: cell-based, human
Conditions: Jurkat.7 SMARTCAR-MTH1-wt-HiBiT cells, compound treatment time 4 hr, 11-point half log dose response
Summary of the method: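 Jurkat.7 cells expressing SMARTCAR-MTH1-wt-HiBiT were treated at 37° C with 11-point half-log dilutions (top final 1000 nM or 833 nM, duplicates, 0.1% DMSO). Remaining HiBiT-tagged protein was read by Nano-Glo HiBiT lytic luminescence, normalized to media-only and DMSO controls.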

DC50 [µM] | SMILES
< 0.1 | CNC(=O)c1cnc2ccc(-c3ccc(C(=O)NCCCNC(=O)CN(C)c4cccc5c4C(=O)N(C4CCC(=O)NC4=O)C5=O)cc3)cc2c1Nc1ccccc1 (stereo not drawn) [Compound 473, 6-(4-((3-(2-((2-(2,6-dioxopiperidin-3-yl)-1,3-dioxoisoindolin-4-yl)(methyl)amino)acetamido)propyl)carbamoyl)phenyl)-N-methyl-4-(phenylamino)quinoline-3-carboxamide]
< 0.1 | CNC(=O)c1cnc2ccc(-c3ccc(C(=O)NCCCCNC(=O)CN(C)c4cccc5c4C(=O)N(C4CCC(=O)NC4=O)C5=O)cc3)cc2c1Nc1ccccc1 (stereo not drawn) [Compound 474, 6-(4-((4-(2-((2-(2,6-dioxopiperidin-3-yl)-1,3-dioxoisoindolin-4-yl)(methyl)amino)acetamido)butyl)carbamoyl)phenyl)-N-methyl-4-(phenylamino)quinoline-3-carboxamide]
< 0.1 | CNC(=O)c1cnc2cc(OC)c(-c3ccc(C(=O)NCCCCNC(=O)COc4cccc5c4C(=O)N(C4CCC(=O)NC4=O)C5=O)cc3)cc2c1Nc1ccccc1 (stereo not drawn) [Compound 475, 6-(4-((4-(2-((2-(2,6-dioxopiperidin-3-yl)-1,3-dioxoisoindolin-4-yl)oxy)acetamido)butyl)carbamoyl)phenyl)-7-methoxy-N-methyl-4-(phenylamino)quinoline-3-carboxamide]
